The values that follow come from patent US11285135B2 (AMGEN INC., priority 2016, dated 2022).

Assay [1] deals with GDP-bound protein (aa 1-169), containing both G12C and C118A amino acid substitutions (Homo sapiens, UniProt P01116, C118A/G12C). Nature of the assay: Coupled Nucleotide Exchange Assay (SOS-mediated nucleotide exchange, AlphaScreen). The format is biochemical. The following applies: 2 hours compound pre-incubation. In a few lines:
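His-tagged GDP-bound […] (aa 1-169, G12C/C118A) pre-incubated 2 h with compound titration in 25 mM HEPES pH 7.4, 10 mM MgCl2, 0.01% Triton X-100.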

Assay [2] relates to Phosphorylation of ERK½ in MIA PaCa-2 cells. Nature of the assay: Phospho-ERK½ MSD Assay in MIA PaCa-2 cells. It counts as cell-based. To be noted: 4 hours compound treatment, 10 ng/mL EGF for 10 min, read-out: p-ERK IC50 (MIA PaCa-2). In a few lines:
(§1)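 MIA PaCa-2 or A549 cells (25,000/well, RPMI with 10% FBS) exposed to compound titration for 4 h at 37 °C, then stimulated with 10 ng/mL EGF for 10 min and lysed in RIPA. Phospho-ERK1/2 quantified by MSD whole-cell lysate immunoassay; IC50 from 4-parameter logistic fit.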

In assay [3] the test system is Phosphorylation of ERK½ in A549 cells. Nature of the assay: Phospho-ERK½ MSD Assay in A549 cells. To be noted: 4 hours compound treatment, 10 ng/mL EGF for 10 min, read-out: p-ERK IC50 (A549). The format is cell-based. Put shortly: as §1
The mark [4] stands for this setting: Homo sapiens, MIA PaCa-2, MIA PaCa-2 cells.

Like-named read-outs stand apart in the source and are kept apart here. Bounds are passed on as bounds.

Chain of GDP-bound protein (aa 1-169), containing both G12C and C118A amino acid substitutions (P01116 1-169 isoform P01116-2 G12C/C118A): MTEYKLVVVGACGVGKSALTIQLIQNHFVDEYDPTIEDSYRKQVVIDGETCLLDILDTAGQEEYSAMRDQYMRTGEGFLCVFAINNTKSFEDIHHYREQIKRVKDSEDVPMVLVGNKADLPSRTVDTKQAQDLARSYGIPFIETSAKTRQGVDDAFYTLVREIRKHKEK

By IC50 is commonly meant the concentration at which inhibition is half-maximal. Turning to `C=CC(=O)N1CCN(c2snc3c(F)c(-c4cc(O)cc5ccccc45)c(Cl)cc23)C(CCO)C1` (stereo in doubt) [Example 1-11, 1-((3S)-4-(5-chloro-7-fluoro-6-(3-hydroxy-1-naphthalenyl)-2,1-benzothiazol-3-yl)-3-(2-hydroxyethyl)-1-piperazinyl)-2-propen-1-one], in assay [1], the “Coupled exchange IC50” value stood at 0.695 µM. Besides, the IC50 is 8.2 µM in assay [2] (setting [4]) and greater than 100 µM in assay [3] (Homo sapiens, A549, A549 cells).
For the molecule `C=CC(=O)N1CCN(c2snc3c(F)c(-c4cc(O)cc5ccccc45)c(Cl)cc23)CC1` [Example 3-1, 1-(4-(5-Chloro-7-fluoro-6-(3-hydroxynaphthalen-1-yl)benzo[c]isothiazol-3-yl)piperazin-1-yl)prop-2-en-1-one], the “Coupled exchange IC50” value in assay [1] was 0.266 µM. The IC50 was 3.23 µM in assay [2] (MIA PaCa-2 cells) and greater than 100 µM in assay [3] (Homo sapiens, A549, A549 cells).
In the case of `C=CC(=O)N1CCN(c2nnc(-c3cnccc3C)c3cc(-c4c(O)cccc4F)c(Cl)cc23)CC1` [Example 10-6, 1-(4-(7-chloro-6-(2-fluoro-6-hydroxyphenyl)-4-(4-methyl-3-pyridinyl)-1-phthalazinyl)-1-piperazinyl)-2-propen-1-one], the “Coupled exchange IC50” value in assay [1] was found to be 1.20 µM. For the same molecule, the IC50 in assay [2] (setting [4]) was 6.07 µM; in assay [3] (Homo sapiens, A549, A549 cells), greater than 100 µM.
For `C=CC(=O)N1CCN(c2nc(=O)n(-c3ccccc3C(C)C)c3cc(-c4cc(O)cc5ccccc45)c(Cl)cc23)CC1` [Example 9-13, 6-chloro-7-(3-hydroxy-1-naphthalenyl)-1-(2-(2-propanyl)phenyl)-4-(4-(2-propenoyl)-1-piperazinyl)-2(1H)-quinazolinone], in that order: 0.306 µM, 0.078 µM and 12.8 µM.
For `C=CC(=O)N1CCN(c2snc3c(F)c(-c4cc(O)cc5ccccc45)c(Cl)cc23)[C@@H](CF)C1` (racemic) [Example 7-2, 1-(4-(5-chloro-7-fluoro-6-(3-hydroxy-1-naphthalenyl)-2,1-benzothiazol-3-yl)-3-(fluoromethyl)-1-piperazinyl)-2-pxopen-1-one] the same measures were 0.180 µM, 0.222 µM and greater than 100 µM.
Turning to `C=CC(=O)N1CCN(c2snc3c(F)c(-c4cc(O)cc5ccccc45)c(Cl)cc23)[C@@H](C)C1` [Example 1-19, 1-((3S)-4-(5-chloro-7-fluoro-6-(3-hydroxy-1-naphthalenyl)-2,1-benzothiazol-3-yl)-3-methyl-1-piperazinyl)-2-propen-1-one], the “Coupled exchange IC50” value in assay [1] stood at 0.297 µM. Moreover, the IC50 was 1.33 µM in assay [2] (MIA PaCa-2 cells) and greater than 100 µM in assay [3] (Homo sapiens, A549, A549 cells).
Turning to `CN(C)C/C=C/C(=O)N1CCN(c2snc3c(F)c(-c4cc(O)cc5ccccc45)c(Cl)cc23)CC1` [Example 17-2, (2E)-1-(4-(5-chloro-7-fluoro-6-(3-hydroxy-1-naphthalenyl)-2,1-benzothiazol-3-yl)-1-piperazinyl)-4-(dimethylamino)-2-buten-1-one], in assay [1], the “Coupled exchange IC50” value worked out at 1.02 µM. Also, the IC50 in assay [2] (setting [4]) amounted to 2.6 µM; in assay [3] (Homo sapiens, A549, A549 cells), 49.1 µM.
For `C=CC(=O)N1CCN(c2nnc(Cc3ccc(F)cc3)c3cc(-c4c(O)cccc4F)c(Cl)cc23)CC1` [Example 29, 1-(4-(7-Chloro-4-(4-fluorobenzyl)-6-(2-fluoro-6-hydroxyphenyl)-1-phthalazinyl)-1-piperazinyl)-2-propen-1-one] the same measures were 3.76 µM, greater than 100 µM and greater than 100 µM.
As for `C=CC(=O)N1CCN(c2snc3c(F)c(-c4cc(O)cc(F)c4F)c(Cl)cc23)CC1` [Example 3-16, 1-(4-(5-chloro-6-(2,3-difluoro-5-hydroxyphenyl)-7-fluoro-2,1-benzothiazol-3-yl)-1-piperazinyl)-2-propen-1-one], in assay [1], the “Coupled exchange IC50” value turned out to be 2.60 µM. Besides, the IC50 in assay [2] (setting [4]) was 21.3 µM; in assay [3] (Homo sapiens, A549, A549 cells), greater than 100 µM.
In the case of `C=CC(=O)N1CCN(c2nnc(C3CC3)c3cc(-c4c(O)cccc4F)c(Cl)cc23)CC1` [Example 12, 1-(4-(7-Chloro-4-cyclopropyl-6-(2-fluoro-6-hydroxyphenyl)-1-phthalazinyl)-1-piperazinyl)-2-propen-1-one], the “Coupled exchange IC50” value in assay [1] came out at 3.34 µM. In addition, the concentration for half-maximal inhibition (IC50) was 25.9 µM in assay [2] (setting [4]) and greater than 100 µM in assay [3] (Homo sapiens, A549, A549 cells).
For the molecule `C=CC(=O)N1CC(N(C)c2snc3c(F)c(-c4cc(O)cc5ccccc45)c(Cl)cc23)C1` [Example 5-9, 1-(3-((5-Chloro-7-fluoro-6-(3-hydroxynaphthalen-1-yl)benzo[c]isothiazol-3-yl)(methyl)amino)azetidin-1-yl)prop-2-en-1-one], the “Coupled exchange IC50” value in assay [1] stood at 0.139 µM. Also, the IC50 in assay [2] (setting [4]) is 0.822 µM; in assay [3] (Homo sapiens, A549, A549 cells) it was greater than 100 µM.
For `C=CC(=O)N1CCN(c2snc3c(F)c(-c4cc(O)ccc4Br)c(Cl)cc23)CC1` [Example 1-1, 1-(4-(6-(2-bromo-5-hydroxyphenyl)-5-chloro-7-fluorobenzo[c]isothiazol-3-yl)piperazin-1-yl)prop-2-en-1-one], in that order: 0.355 µM, 2.55 µM and greater than 33.3 µM.
For `C=CC(=O)N1CCN(c2snc3c(F)c(-c4cc(OC)ccc4Cl)c(Cl)cc23)CC1` [Example 3-9, 1-(4-(5-chloro-6-(2-chloro-5-methoxyphenyl)-7-fluoro-2,1-benzothiazol-3-yl)-1-piperazinyl)-2-propen-1-one], in that order: 3.37 µM, 9.25 µM and greater than 33.3 µM.
With `C=CC(=O)N1CCN(c2snc3c(F)c(-c4c[nH]c5ccccc45)c(Cl)cc23)CC1` [Example 1-2, 1-(4-(5-chloro-7-fluoro-6-(1H-indol-3-yl)-2,1-benzothiazol-3-yl)-1-piperazinyl)-2-propen-1-one], the “Coupled exchange IC50” value in assay [1] is 2.38 µM. The IC50 was 6.08 µM in assay [2] (setting [4]) and greater than 100 µM in assay [3] (Homo sapiens, A549, A549 cells).
For `C=CC(=O)N1CCN(c2snc3c(F)c(-c4cc(O)cc5cnn(C)c45)c(Cl)cc23)CC1` [Example 19-2, 1-(4-(5-chloro-7-fluoro-6-(5-hydroxy-1-methyl-1H-indazol-7-yl)-2,1-benzothiazol-3-yl)-1-piperazinyl)-2-propen-1-one] the same measures were 1.62 µM, 4.69 µM and 3.7 µM.
For `C=CC(=O)N1CCN(c2snc3c(F)c(-c4c(C)ccc5[nH]ncc45)c(Cl)cc23)CC1` [Example 3-5, 1-(4-(5-chloro-7-fluoro-6-(5-methyl-1H-indazol-4-yl)-2,1-benzothiazol-3-yl)-1-piperazinyl)-2-propen-1-one], in that order: 0.693 µM, 5.26 µM and 3.7 µM.
For `C=CC(=O)N1CCN(c2nc(=O)n(-c3cnccc3C3CC3)c3cc(-c4c(O)cccc4F)c(Cl)cc23)CC1` [Example 8-5, 6-chloro-1-(4-cyclopropyl-3-pyridinyl)-7-(2 fluoro-6-hydroxyphenyl)-4-(4-(2-propenoyl)-1-piperazinyl)-2(1H)-quinazolinone], in that order: 0.400 µM, 2.41 µM and greater than 100 µM.
With `C=CC(=O)N1CCN(c2nnc(-c3ccccc3)c3cc(-c4c(O)cccc4F)c(Cl)cc23)CC1` [Example 30, 2-(1-(4-Acryloyl-1-piperazinyl)-7-chloro-4-phenyl-6-phthalazinyl)-3-fluorophenol], the “Coupled exchange IC50” value in assay [1] was determined as 7.51 µM. The IC50 in assay [2] (setting [4]) is 58 µM; in assay [3] (Homo sapiens, A549, A549 cells), greater than 100 µM.
For `C=CC(=O)N1CCN(c2nc(=O)n(-c3c(CC)cccc3CC)c3nc(-n4nnc5ccccc54)c(Cl)cc23)[C@@H](C)C1` [Example 9-12, 7-(1H-benzotriazol-1-yl)-6-chloro-1-(2,6-diethylphenyl)-4-((2S)-2-methyl-4-(2-propenoyl)-1-piperazinyl)pyrido[2,3-d]pyrimidin-2(1H)-one], in that order: 1.32 µM, 1.29 µM and greater than 100 µM.
For `C=CC(=O)N1CCN(c2nnc(Cc3ccccc3)c3cc(-c4c(O)cccc4F)c(Cl)cc23)CC1` [Example 35, 2-(1-(4-acryloyl-1-piperazinyl)-4-benzyl-7-chloro-6-phthalazinyl)-3-fluorophenol] the same measures were 8.01 µM, 79.7 µM and greater than 100 µM.
For `C=CC(=O)N1CCN(c2nnc(-c3ccccc3Cl)c3cc(-c4c(O)cccc4F)c(Cl)cc23)CC1` [Example 10-11, 1-(4-(7-chloro-4-(2-chlorophenyl)-6-(2-fluoro-6-hydroxyphenyl)-1-phthalazinyl)-1-piperazinyl)-2-propen-1-one] the same measures were 0.516 µM, 14.7 µM and greater than 100 µM.
Take `C=CC(=O)N1CCN(c2nc(=O)n(-c3ccccc3C(C)C)c3cc(-c4c(O)cccc4F)c(Cl)cc23)CC1` (single isomer, unassigned) [Example 8-1-2, 6-Chloro-7-(2-fluoro-6-hydroxyphenyl)-1-(2-(2-propanyl)phenyl)-4-(4-(2-propenoyl)-1-piperazinyl)-2(1H)-quinazolinone]: in assay [1], the “Coupled exchange IC50” value stood at 0.322 µM. The IC50 in assay [2] (MIA PaCa-2 cells) was 0.811 µM; in assay [3] (A549 cells), greater than 100 µM.
